Experimental data reported in US20250027072A1, “METHODS AND CO[…] TO ENGINEERED CANNABINOID RECEPTORS” (priority 2021, published 2025).
Where “and” joins values, the source holds several entries; their conditions need not be identical. Identical values can stand only once. Like-named read-outs stand apart in the source and are kept apart here.

How the values were obtained:
[1] = system: human cannabinoid receptor type II (CB2R); test: cell-based; type: cell-based; details: for receptor bias CB2R versus CB1R: dual biosensor screen at 1 μM
Description: (§1) To efficiently transduce signals from the human machinery to the yeast pathway, the yeast 5 C-terminal residues of the G-alpha gene GPA1 were replaced with the sequence of the Gαi3 human G-alpha variant as previously described (Brown et al. 2000). ZsGreen1 was used to report on the activity of the pathway, integrating it into the genome in place of the pheromone-inducible Fig1 gene (FIG. 14A).
(§2) Yeast colonies were picked and grown overnight to saturation in pH 5.8 SD-His media in a 2.2 mL deep well plate (Axygen) grown in a plate-shaking incubator (30° C., 1000 rpm, 3 mm orbital). In the morning cultures were diluted 1:10 or 1:25 in SD-His media buffered to pH 7.1 with 100 mM MOPSO (unless otherwise specified). Ligands were added to the culture and incubated with shaking for 8 hours. Cells were then washed three times with ice-cold Tris buffer (pH 7) and diluted 1:20 for cytometry. All cytometry was performed on a Sony SA3800 spectral analyzer. Each sample was tested for 10,000 events, and read at a rate of 1,000 events per second. All assays as reported here were filtered only for singlet populations.

[2] = target: T1, human cannabinoid receptor type II (CB2R) (Homo sapiens, UniProt P34972); test: cell-based; type: cell-based; details: Ste2 signal sequence CB2R; read-out: EC50, dose response with CB2R
Description: as §1, §2

[3] = target: T1, human cannabinoid receptor type II (CB2R); test: cell-based; type: cell-based; set-up: other: syn-prepro CB2R; "Syn=synthetic pre-pro"; fused on or other part: synthetic yeast pre-pro secretion leader (syn-prepro) fused at the N-terminus; details: EC50, dose response with CB2R, syn-prepro CB2R
Description: as §1, §2

[4] = target: T1, human cannabinoid receptor type II (CB2R); test: cell-based; type: cell-based; set-up: other: MF alpha leader CB2R; "MF-α=mating factor alpha pre-pro"; fused on or other part: yeast mating factor alpha (MFα) pre-pro leader fused at the N-terminus; details: EC50, dose response with CB2R, MF alpha leader CB2R
Description: as §1, §2

[5] = target: T1, human cannabinoid receptor type II (CB2R); test: cell-based; type: cell-based; set-up: MFα (mating factor alpha) pre-pro leader (N); expressed in transfected cells; host or cells: Saccharomyces cerevisiae BY4741-derived biosensor strain (Gpa1-Gαi3 chimera, ZsGreen reporter); sterol-modified strain ST03 for the screens, pH 5.8; details: EC50, dose response with CB2R, WT CB2R (no leader)
Description: as §1, §2

[6] = system: human Cannabinoid Receptor 1 (CB1R); type: cell-based
[7] = target: T1, human cannabinoid receptor type II (CB2R); test: cell-based; type: cell-based; set-up: Normalized Activity at 1 μM, CB2R; other: PINACA compounds, 1 μM; Normalized Activity at 1 μm, CB2R; other: 5-fluoro PB-22 isomers, 1 μm; other: MFα-CB2R, ST03 sterol strain, pH 5.8; activity against CB2R; other: at 10 nM, dose response; preference at CB2R of ADB-BINACA over AB-PINACA; signaling at CB2R in synthetic cannabinoid screen; fused on or other part: yeast mating factor alpha (MFα) pre-pro leader fused at the N-terminus as a trafficking signal; details: for EC50: MFα-CB2R, ST03 sterol strain, pH 5.8, read-out: EC50 at CB2R, dose response
Description: as §1, §2

[8] = target: T2, human Cannabinoid Receptor 1 (CB1R) (Homo sapiens, UniProt P21554); type: cell-based
T2 construct: syn-prepro (synthetic yeast pre-pro secretion leader) (N); expressed in transfected cells; host or cells: Saccharomyces cerevisiae BY4741-derived strain (ste2, sst2, far1 knocked out); Gpa1-Gαi3 chimera

[9] = target: T3, CB1R (Homo sapiens, UniProt P21554); details: Banister et al., 2015; read-out: EC50 with CB1R in mouse AtT-20 neuroblastoma cells; cited from earlier work
T3 construct: host or cells: mouse AtT-20 cells
T3 sequence (P21554 whole entry): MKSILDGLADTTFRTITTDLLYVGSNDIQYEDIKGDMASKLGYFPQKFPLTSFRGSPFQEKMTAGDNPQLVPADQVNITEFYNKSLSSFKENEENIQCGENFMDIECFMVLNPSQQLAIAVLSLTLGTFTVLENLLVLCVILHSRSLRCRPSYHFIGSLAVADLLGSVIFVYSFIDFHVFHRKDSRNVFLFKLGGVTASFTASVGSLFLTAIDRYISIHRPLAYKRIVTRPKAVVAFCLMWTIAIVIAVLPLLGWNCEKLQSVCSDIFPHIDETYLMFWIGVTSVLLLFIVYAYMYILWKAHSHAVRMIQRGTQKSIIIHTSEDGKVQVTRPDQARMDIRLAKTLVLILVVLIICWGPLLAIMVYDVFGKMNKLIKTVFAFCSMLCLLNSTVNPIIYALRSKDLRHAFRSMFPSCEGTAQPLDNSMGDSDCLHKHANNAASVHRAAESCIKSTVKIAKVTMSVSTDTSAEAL

T1 sequence (P34972 whole entry): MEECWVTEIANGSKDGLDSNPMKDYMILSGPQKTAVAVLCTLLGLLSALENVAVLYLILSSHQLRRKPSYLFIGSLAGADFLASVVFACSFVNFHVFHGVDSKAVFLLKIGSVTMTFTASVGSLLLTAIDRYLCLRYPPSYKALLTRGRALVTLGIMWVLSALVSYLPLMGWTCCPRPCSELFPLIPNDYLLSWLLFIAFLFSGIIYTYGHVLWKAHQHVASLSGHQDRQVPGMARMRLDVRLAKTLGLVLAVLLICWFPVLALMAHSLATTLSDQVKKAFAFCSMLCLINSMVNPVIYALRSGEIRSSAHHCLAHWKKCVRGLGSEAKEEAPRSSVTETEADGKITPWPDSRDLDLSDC

## CCC(F)CCn1cc(C(=O)C2C(C)(C)C2(C)C)c2ccccc21 (single isomer, unassigned) [XLR11 N-(3-fluoropentyl) isomer]
[1]
  receptor bias CB2R versus CB1R: CB2R-biased

## CCCCC/C=C\C/C=C\C/C=C\C/C=C\CCCC(=O)OC(CO)CO [2-AG, 2-arachidonoyl glycerol]
[2]
  EC50: 150 nM
[3]
  EC50: 1540 nM
[4]
  EC50: 160 nM
[5]
  EC50: 70 nM

## O=C(Oc1ccnc2ccccc12)c1cn(CCCCCF)c2ccccc12 [5-fluoro PB-22 4-hydroxyquinoline isomer]
[6]
  factor by which CB1 is favored over CB2: ~3

## O=C(Oc1cccc2cnccc12)c1cn(CCCCCF)c2ccccc12 [5-fluoro PB-22 5-hydroxyisoquinoline isomer]
[7]
  EC50: 216 nM
[1]; normalized activity at 1 μM, Table 3
  fold by which CB2 is favored over CB1: roughly 2 fold

## CC1(C)C(C(=O)c2cn(CC3CCOCC3)c3ccccc23)C1(C)C [A-834735]
[7]
  EC50: 7.42 nM
[1]
  receptor bias CB2R versus CB1R: CB2R-biased

## CCCCCn1nc(C(=O)N[C@H](C(N)=O)C(C)C)c2ccccc21 [AB-PINACA]
[7]
  EC50: 107 nM
[7]; compounds at 1 μM
  signaling at CB2R in synthetic cannabinoid screen: high activity
[8]; compounds at 10 nM, 100 μM ACEA control
  relative fluorescence of the ACEA positive control at CB1R: strong signaling
[8]; compounds at 1 μM
  signaling at CB1R in synthetic cannabinoid screen relative to 100 μM ACEA positive control: maximal fluorescence
[8]; syn-prepro-Δ89-CB1R, wild type ergosterol strain
  EC50 at CB1R, synthetic cannabinoid dose response: low nanomolar range
[8]; syn-prepro-Δ89-CB1R, wild type ergosterol strain, read-out: EC50 at CB1R, synthetic cannabinoid dose response
  EC50: 1.2 nM and 1.21 nM
[9]
  EC50: 1.2 nM

## CCCCC/C=C\C/C=C\C/C=C\C/C=C\CCCC(=O)NCCCl [ACEA]
[6]
  drop in sensitivity of Δ89 constructs compared to full-length counterparts: 3.6-3.8 fold and 3.8 fold
[8]
  EC50, dose response with CB1R: low μM range

## CCCCCn1nc(C(=O)NC(C(N)=O)C(C)(C)C)c2ccccc21 (centres unmarked) [drawing 2]
[7]; PINACA compounds, 1 μM
  Normalized Activity at 1 μM, CB2R: 0.700
[8]; PINACA compounds, 1 μM
  Normalized Activity at 1 μM, CB1R: 0.590

## O=C(Oc1ccnc2ccccc12)c1cn(CCCCCF)c2ccccc12 [drawing 16]
[7]; 5-fluoro PB-22 isomers, 1 μm
  Normalized Activity at 1 μm, CB2R: 0.247
[8]; 5-fluoro PB-22 isomers, 1 μm
  Normalized Activity at 1 μm, CB1R: 0.829
